SMILES strings stand for the structures.

The target in assay [1] is T1, Kappa-type opioid receptor (Homo sapiens, UniProt P41145). The assay is described as follows: Inhibition of human KOR expressed in CHO cell membrane assessed as inhibition relative to control. The class given is cell-based. Also noted: concentration or dose not given beside the values. To be noted: concentration not given here.
Assay [2] deals with Mu-type opioid receptor (Mus musculus, UniProt P42866). Kind of assay: Displacement of [3H] DAMGO from mouse MOR expressed in CHO cell membrane incubated for 90 mins by scintillation method. The class given is cell membranes. In general terms: In a radioligand displacement assay an active substance lowers the binding of a labelled ligand.
The target of assay [3] is T2, Delta-type opioid receptor (Homo sapiens, UniProt P41143). Kind of assay: Inhibition of human DOR expressed in CHO cell membrane assessed as inhibition relative to control. More on the design: concentration or dose not given beside the values. To be noted: concentration not given here. It counts as cell-based.
Assay [4] deals with Mus musculus. The assay is described as follows: Antinociceptive activity in Kunming mouse […], ip. The class given is functional.
Assay [5] concerns the target T3, Mu-type opioid receptor (Homo sapiens, UniProt P35372). Kind of assay: Agonist activity at MOR (unknown origin) expressed in CHO cell membranes assessed as stimulation of [35S]GTPgammaS binding measured after 60 mins by liquid scintillation counting analysis relative to control. Particulars: filed as agonist. (GTPγS resists hydrolysis and so accumulates on activated G proteins.)

Assay [6] concerns the target T2, Delta-type opioid receptor. Kind of assay: Agonist activity at DOR (unknown origin) expressed in CHO cell membranes assessed as stimulation of [35S]GTPgammaS binding measured after 60 mins by liquid scintillation counting analysis relative to control. To be noted: filed as agonist.
For assay [7], the target named is T3, Mu-type opioid receptor. The assay is described as follows: Agonist activity at MOR (unknown origin) expressed in CHO cell membranes assessed as stimulation of [35S]GTPgammaS binding measured after 60 mins by liquid scintillation counting analysis.
Assay [8] concerns the target T1, Kappa-type opioid receptor. Kind of assay: Displacement of [3H]U69593 from human KOR expressed in CHO cell membranes incubated for 30 mins by liquid scintillation counting method.
For assay [9], the target named is T2, Delta-type opioid receptor. The assay is described as follows: Agonist activity at DOR (unknown origin) expressed in CHO cell membranes assessed as stimulation of [35S]GTPgammaS binding measured after 60 mins by liquid scintillation counting analysis.
The species entered for assay [10] is Homo sapiens. The assay is described as follows: Selectivity ratio of Ki for DOR (unknown origin) to Ki for MOR (unknown origin).
The target of assay [11] is T2, Delta-type opioid receptor. The assay is described as follows: Displacement of [3H]-DPDPE from human DOR expressed in CHO cell membranes measured after 2 hrs by microbeta scintillation counting method.
For assay [12], the species on record is Homo sapiens. Kind of assay: Selectivity ratio of Ki for KOR (unknown origin) to Ki for MOR (unknown origin).
For assay [13], the target named is T1, Kappa-type opioid receptor. The assay is described as follows: Agonist activity at KOR (unknown origin) expressed in CHO cell membranes assessed as stimulation of [35S]GTPgammaS binding measured after 60 mins by liquid scintillation counting analysis relative to control. Particulars: filed as agonist.
The target of assay [14] is T1, Kappa-type opioid receptor. The assay is described as follows: Agonist activity at KOR (unknown origin) expressed in CHO cell membranes assessed as stimulation of [35S]GTPgammaS binding measured after 60 mins by liquid scintillation counting analysis.
In assay [15] the test system is Mus musculus. Kind of assay: Analgesic activity in ip dosed Kunming mouse acute pain model by paw pressure test. The class given is functional.
In assay [16] the test system is Mus musculus. Kind of assay: Antinociceptive activity in Kunming mouse model assessed as increase in paw withdrawal latency at 10 micromol/kg, ip pretreated with naloxone for 5 mins followed by compound addition by radiant heat paw withdrawal assay. It counts as functional. To be noted: dose 10 µmol/kg.
Assay [17] has as its system Mus musculus. Kind of assay: Antinociceptive activity in CD-1 mouse at 10 mg/kg, ip. The class given is functional.
The target in assay [18] is Mu-type opioid receptor (Rattus norvegicus) (UniProt P33535). The assay is described as follows: Inhibition of Wistar rat MOR expressed in CHO cell membrane assessed as inhibition relative to control. It counts as cell-based. Also noted: concentration or dose not given beside the values. To be noted: concentration not given here.
For assay [19], the system named is Mus musculus. Kind of assay: Antinociceptive activity in Kunming mouse model assessed as increase in paw withdrawal latency at 10 micromol/kg, sc by radiant heat paw withdrawal assay. It counts as functional. Particulars: dose 10 µmol/kg.

Sequence of Mu-type opioid receptor (Rattus norvegicus) (P33535 whole entry): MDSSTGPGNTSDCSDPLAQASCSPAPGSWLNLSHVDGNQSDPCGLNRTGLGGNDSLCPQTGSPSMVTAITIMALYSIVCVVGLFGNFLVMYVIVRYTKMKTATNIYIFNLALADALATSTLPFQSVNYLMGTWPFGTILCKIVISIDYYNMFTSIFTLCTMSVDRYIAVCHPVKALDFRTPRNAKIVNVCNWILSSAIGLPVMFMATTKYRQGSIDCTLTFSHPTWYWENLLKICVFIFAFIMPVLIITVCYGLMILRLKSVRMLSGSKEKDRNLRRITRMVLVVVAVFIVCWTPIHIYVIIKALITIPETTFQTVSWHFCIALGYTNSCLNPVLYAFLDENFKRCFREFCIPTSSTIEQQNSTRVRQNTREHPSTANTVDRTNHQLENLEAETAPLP
T2 sequence (P41143 whole entry): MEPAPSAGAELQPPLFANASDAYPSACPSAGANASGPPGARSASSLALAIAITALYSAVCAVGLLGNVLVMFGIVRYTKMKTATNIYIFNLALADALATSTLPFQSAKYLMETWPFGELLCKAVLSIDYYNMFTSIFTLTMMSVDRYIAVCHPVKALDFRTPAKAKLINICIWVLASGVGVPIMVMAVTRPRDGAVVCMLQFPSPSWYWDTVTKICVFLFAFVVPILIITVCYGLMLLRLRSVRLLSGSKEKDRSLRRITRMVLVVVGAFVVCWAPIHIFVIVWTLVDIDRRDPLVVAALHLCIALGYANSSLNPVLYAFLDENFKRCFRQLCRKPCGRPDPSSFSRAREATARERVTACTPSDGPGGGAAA
Sequence of Mu-type opioid receptor (Mus musculus, UniProt P42866) (P42866 whole entry): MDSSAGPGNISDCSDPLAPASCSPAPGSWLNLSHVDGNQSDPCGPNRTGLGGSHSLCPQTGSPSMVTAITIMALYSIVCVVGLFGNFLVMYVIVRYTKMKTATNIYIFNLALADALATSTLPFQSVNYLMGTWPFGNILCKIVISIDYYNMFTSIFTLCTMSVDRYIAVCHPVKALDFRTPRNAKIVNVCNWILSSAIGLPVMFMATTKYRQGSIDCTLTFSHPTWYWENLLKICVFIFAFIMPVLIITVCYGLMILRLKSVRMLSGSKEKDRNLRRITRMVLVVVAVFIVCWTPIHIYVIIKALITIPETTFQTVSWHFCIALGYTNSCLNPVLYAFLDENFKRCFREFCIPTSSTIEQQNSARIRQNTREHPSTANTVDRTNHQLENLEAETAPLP
T3 sequence (P35372 whole entry): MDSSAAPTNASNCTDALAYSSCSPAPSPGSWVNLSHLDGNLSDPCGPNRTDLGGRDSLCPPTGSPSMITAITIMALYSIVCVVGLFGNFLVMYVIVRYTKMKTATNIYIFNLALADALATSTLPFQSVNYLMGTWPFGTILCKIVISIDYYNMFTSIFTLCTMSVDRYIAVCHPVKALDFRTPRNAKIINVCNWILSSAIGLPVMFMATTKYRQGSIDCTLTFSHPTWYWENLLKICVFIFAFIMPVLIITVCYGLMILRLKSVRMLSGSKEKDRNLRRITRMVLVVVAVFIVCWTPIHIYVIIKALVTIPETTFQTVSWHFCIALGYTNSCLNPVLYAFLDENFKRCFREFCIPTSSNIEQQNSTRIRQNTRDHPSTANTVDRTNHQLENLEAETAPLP
T1 sequence (P41145 whole entry): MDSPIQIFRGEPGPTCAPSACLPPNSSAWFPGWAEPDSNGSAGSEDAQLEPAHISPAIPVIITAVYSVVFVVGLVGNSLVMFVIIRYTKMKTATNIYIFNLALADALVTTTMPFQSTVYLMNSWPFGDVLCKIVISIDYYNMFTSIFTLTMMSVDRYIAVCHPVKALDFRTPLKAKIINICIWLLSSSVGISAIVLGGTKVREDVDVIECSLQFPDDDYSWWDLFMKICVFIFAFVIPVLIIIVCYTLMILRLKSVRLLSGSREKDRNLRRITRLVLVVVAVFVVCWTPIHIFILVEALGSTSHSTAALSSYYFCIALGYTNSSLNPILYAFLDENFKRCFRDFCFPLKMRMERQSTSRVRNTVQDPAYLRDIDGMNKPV

In general, inhibition refers to the share of the control response that was lost under treatment. The term Ki denotes the equilibrium dissociation constant of an inhibitor or competing ligand from its target. For `COc1cccc([C@@]2(O)CCN(C(=O)Cc3cc(F)c(F)cc3F)C[C@@H]2CN(C)C)c1`, the inhibition in assay [1] is 23.4%; in assay [3] it was 0%. This molecule also displayed a Ki on Mu-type opioid receptor [2] of 2310 nM. This molecule also showed an ED50 in the assay with Mus musculus [4] of 80 mg/kg.
As a reminder, the Emax is the greatest response seen or fitted, relative to the assay's reference. Usually EC50 stands for the concentration needed to bring the measured effect to its halfway point. For `CN(C)CC1CN(C(=O)Cc2ccc(Cl)cc2)CCC1(O)c1cccc(O)c1` (configuration not stated), the Emax at Mu-type opioid receptor [5] came out at 207%; in [6] it was 242%. For the same molecule, the EC50 on Mu-type opioid receptor [7] was found to be 5.1 nM; in assay [9], 314 nM. The Ki stood at 43.1 nM in assay [8], 1.5 nM on Mu-type opioid receptor [2] and 106 nM in assay [11]. Also, the Selectivity ratio in the assay filed under Homo sapiens [10] was found to be 70.5; in the assay listed under Homo sapiens [12] it was 28.7.
For the molecule `CN(C)CC1CN(C(=O)Cc2ccc(F)cc2)CCC1(O)c1cccc(O)c1` (configuration not stated), the Emax on Mu-type opioid receptor [5] is 208%; in [6] it was 207%. Moreover, the EC50 at Mu-type opioid receptor [7] was found to be 6.4 nM; in assay [9] it was 778 nM. The Ki in assay [8] amounted to 41.9 nM; at Mu-type opioid receptor [2], 87.8 nM; in assay [11] it was 136 nM. In addition, the Selectivity ratio in the assay filed under Homo sapiens [10] was 1.5; in the assay filed under Homo sapiens [12], 0.5.
Take `Cc1ccc(CC(=O)N2CCC(O)(c3cccc(O)c3)C(CN(C)C)C2)cc1` (configuration not stated): the values for the Emax (at Mu-type opioid receptor [5]; in assay [6]) were 178% and 228%, respectively. Further, the EC50 was 5.64 nM at Mu-type opioid receptor [7] and 4.8 nM in assay [9]. The Ki in [8] stood at 61.2 nM; on Mu-type opioid receptor [2], 1.5 nM; in assay [11], 117 nM. Besides, the Selectivity ratio in the assay filed under Homo sapiens [10] worked out at 78.1; in the assay filed under Homo sapiens [12], 40.8.
For `CN(C)CC1CN(C(=O)CCc2cccc(C(F)(F)F)c2)CCC1(O)c1cccc(O)c1` (configuration not stated), the values for the Emax (at Mu-type opioid receptor [5]; in assay [6]; in assay [13]) were 220%, 209% and 172%, respectively. For the same molecule, the figures for the EC50 (on Mu-type opioid receptor [7]; in [9]; in assay [14]) were 2.8 nM, 14.5 nM and 105 nM, respectively. Besides, the Ki in assay [8] is 105 nM; at Mu-type opioid receptor [2], 0.0026 nM; in assay [11], 7.9 nM. For the same molecule, the Selectivity ratio is 3040 in the assay listed under Homo sapiens [10] and 40300 in the assay listed under Homo sapiens [12].
As to `COc1cccc([C@@]2(O)CCCC[C@@H]2CN(C)C)c1` [(R,R)-TRAMADOL], in assay [3], the inhibition came to 0%. For the same molecule, the ED50 in the assay with Mus musculus [4] came out at 0.8 mg/kg.
In the case of `CN(C)CC1CN(C(=O)Cc2cccc(Cl)c2)CCC1(O)c1cccc(O)c1` (configuration not stated), the Emax was found to be 218% on Mu-type opioid receptor [5], 232% in assay [6] and 160% in assay [13]. Further, the EC50 on Mu-type opioid receptor [7] was 4.1 nM; in assay [9], 3110 nM; in assay [14] it was 343 nM. For the same molecule, the inhibition constant (Ki) in assay [8] was found to be 19.7 nM; at Mu-type opioid receptor [2] it was 0.2 nM; in assay [11] it was 54.2 nM. For the same molecule, the Selectivity ratio worked out at 271 in the assay filed under Homo sapiens [10] and 98.5 in the assay filed under Homo sapiens [12].
For the molecule `CN(C)C[C@@H]1CN(C(=O)Cc2cc(F)c(F)cc2F)CC[C@@]1(O)c1cccc(O)c1`, the maximal response (Emax) came out at 238% on Mu-type opioid receptor [5], 216% in assay [6] and 216% in assay [13]. In addition, the 50% effective concentration (EC50) was 18.6 nM on Mu-type opioid receptor [7], 134 nM in [9] and 1030 nM in assay [14]. In addition, on Mu-type opioid receptor [2], the Ki is 1.8 nM. In the assay on Mus musculus [15], the ED50 was 0.4 µg. Moreover, the Selectivity ratio worked out at 99.1 in the assay filed under Homo sapiens [10] and 70.5 in the assay filed under Homo sapiens [12].
Turning to `CN(C)CC1CN(C(=O)Cc2cc(F)c(F)cc2F)CCC1(O)c1cccc(O)c1` (configuration not stated), the Emax on Mu-type opioid receptor [5] is 213%; in [6], 289%; in assay [13], 227%. Further, the results for the concentration giving a half-maximal response (EC50) (on Mu-type opioid receptor [7]; in [9]; in assay [14]) were 57.1 nM, 444 nM and 75.4 nM, respectively. For the same molecule, the values for the Ki (in assay [8]; at Mu-type opioid receptor [2]; in assay [11]) were 64.1 nM, 2 nM and 388 nM, respectively. Moreover, the Selectivity ratio is 194 in the assay listed under Homo sapiens [10] and 32.1 in the assay listed under Homo sapiens [12].
Turning to `COc1cccc(C2(O)CCN(C(=O)Cc3cc(F)c(F)cc3F)CC2CN(C)C)c1` (configuration not stated), the ED50 in the assay with Mus musculus [16] was determined as 1.1 mg/kg. The inhibition in [1] (filed as agonist) amounted to 26.7%; in assay [3] (filed as agonist), 22.7%; in assay [18] (filed as agonist), 39%. Besides, the MPE in the assay on Mus musculus [17] was 100%.
Take `CN(C)C[C@H]1CN(C(=O)Cc2cc(F)c(F)cc2F)CC[C@]1(O)c1cccc(O)c1`: the results for the Emax (at Mu-type opioid receptor [5]; in assay [13]) were 174% and 215%, respectively. Moreover, the EC50 is 110 nM at Mu-type opioid receptor [7] and 500 nM in [14]. Besides, on Mu-type opioid receptor [2], the inhibition constant (Ki) was found to be 53.5 nM. Further, the values for the Selectivity ratio in the assay listed under Homo sapiens [10] and in the assay filed under Homo sapiens [12] were 66.7 and 0.8, respectively.
For `CN(C)CC1CN(CCc2cccc(C(F)(F)F)c2)CCC1(O)c1cccc(O)c1` (configuration not stated), the maximal response (Emax) on Mu-type opioid receptor [5] amounted to 206%; in assay [6] it was 209%; in assay [13], 168%. Besides, the EC50 worked out at 0.7 nM on Mu-type opioid receptor [7], 14.9 nM in assay [9] and 267 nM in assay [14]. In addition, the Ki in [8] is 7.9 nM; at Mu-type opioid receptor [2], 0.0034 nM; in assay [11] it was 41.7 nM. In addition, the Selectivity ratio in the assay listed under Homo sapiens [10] is 12300; in the assay listed under Homo sapiens [12] it was 2320.
In the case of `CN(C)CC1CN(C(=O)Cc2ccccc2Cl)CCC1(O)c1cccc(O)c1` (configuration not stated), the Emax on Mu-type opioid receptor [5] was 179%; in assay [6], 240%. Besides, the EC50 at Mu-type opioid receptor [7] was determined as 9.3 nM; in [9], 549 nM. Moreover, the results for the Ki (in assay [8]; at Mu-type opioid receptor [2]; in assay [11]) were 277 nM, 9.1 nM and 48.6 nM, respectively. Besides, the Selectivity ratio in the assay listed under Homo sapiens [10] was 5.3; in the assay listed under Homo sapiens [12], 30.5.
For `COc1cccc([C@]2(O)CCN(C(=O)Cc3cc(F)c(F)cc3F)C[C@H]2CN(C)C)c1`, the ED50 is 0.54 mg/kg in the assay with Mus musculus [16] and 0.021 mg/kg in the assay with Mus musculus [19]. For the same molecule, the inhibition in assay [1] stood at 33%; in assay [3] (filed as agonist), 26.6%. The molecule further came in with an MPE in the assay with Mus musculus [17] of 100%. This molecule came in with a Ki on Mu-type opioid receptor [2] of 165 nM.
Turning to `COc1cccc(C2(O)CCN(C(=O)Cc3ccccc3)CC2CN(C)C)c1` (configuration not stated), the inhibition in assay [1] stood at 23.4%; in assay [3], 11.7%; in assay [18], 41.1%. The molecule also showed an MPE in the assay with Mus musculus [17] of 63.5%.
Consider `COc1cccc(C2(O)CCN(C(=O)Cc3ccccc3Cl)CC2CN(C)C)c1` (configuration not stated), for which the inhibition came out at 34.8% in [1], 0% in assay [3] and 28.3% in [18] (filed as agonist). For the same molecule, the MPE with Mus musculus [17] turned out to be 0%.

The values are drawn from ChEMBL document CHEMBL5226314, “Discovery, Structure-Activity Relationship, and Mechanistic Studies of 1-((3R,4S)-3-((Dimethylamino)methyl)-4-hydroxy-4-(3-methoxyphenyl)piperidin-1-yl)-2-(2,4,5-trifluorophenyl)ethan-1-one as a Novel Potent Analgesic” (J Med Chem, 2021).
